Reference: patent US20200404919A1, “USE OF HETEROARYL-TRIAZOLE AND HETEROARYL-TETRAZOLE COMPOUNDS AS PESTICIDES IN PLANT PROTECTION” (Bayer Aktiengesellschaft, priority 2018, published 2020)

Tests used:
Assay type in all cases: in vivo
Aphis gossypii = Aphis gossypii - oral test; details: 120 h, read-out: mortality in %
Method in brief: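 Mixed-population cotton aphids feed through parafilm on compound (acetone stock diluted in water) mixed with IPL41 insect medium containing sugar. Mortality (%) scored after 5 days.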

Diabrotica balteata = Diabrotica balteata - spray test; details: 168 h, 160 μg/well, germinated wheat seeds, larvae, after 7 days, read-out: efficacy in %
Method in brief: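 Wheat seeds germinated 1 day on agar were sprayed with compound diluted in water with 1000 ppm emulsifier, then infested with 10-20 Diabrotica balteata larvae. Efficacy in % scored after 7 days: 100% = seedlings grown as untreated, uninfected control; 0% = no seedlings grown.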

Myzus persicae [1] = experiment: Myzus persicae - spray test; details: foliar, 120 h, Chinese cabbage leaf disks, all instars, after 5 days
Protocol: Myzus persicae—Spray Test
(§1) To produce a suitable preparation of active compound, 1 part by weight of active compound is mixed with the stated amount of solvents and is diluted with water, containing an emulsifier concentration of 1000 ppm, to the desired concentration. Further test concentrations are prepared by dilution with emulsifier containing water.
Chinese cabbage (Brassica pekinensis) leaf disks infected with all instars of the green peach aphid (Myzus persicae), are sprayed with a preparation of the active ingredient of the desired concentration.
After 5 days mortality in % is determined. 100% means all aphids have been killed and 0% means none of the aphids have been killed.

Nezara viridula [2] = experiment: Nezara viridula - spray test 1; details: in Hordeum vulgare, 96 h, read-out: mortality in %
Method in brief: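 Barley plants carrying southern green stink bug larvae were sprayed with compound diluted in water with 1000 ppm emulsifier. Mortality (%) was scored after 4 days.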

Spodoptera frugiperda = Spodoptera frugiperda - spray test; details: in Zea mays, 168 h, read-out: mortality in %
Method in brief: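 Compound mixed with solvent, diluted with 1000 ppm emulsifier water to test concentrations; sprayed on maize leaf pieces; dried; larvae added; mortality (%) scored at 7 d.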

Nezara viridula [3] = experiment: Nezara viridula - spray test 2; details: 96 h, barley plants, larvae, after 4 days
Protocol: Nezara viridula—Spray Test 2
(§2) To produce a suitable preparation of active compound, 1 part by weight of active compound is mixed with the stated amount of solvent, and the concentrate is diluted with water, containing an emulsifier concentration of 1000 ppm, to the desired concentration. Ammonium salt and/or penetration enhancer in a dosage of 1000 ppm are added to the desired concentration if necessary.
Barley plants (Hordeum vulgare) infested with larvae of the southern green stink bug (Nezara viridula) are sprayed with a test solution containing the desired concentration of the active ingredient.
After 4 days mortality in % is determined. 100% means all the stink bugs have been killed; 0% means none of the stink bugs have been killed.

Nilaparvata lugens [4] = experiment: Nilaparvata lugens - spray test 1; details: in Oryza sativa, 96 h, read-out: mortality in %, 500 g/ha, rice plants, after 4 days
Method in brief: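 Rice plants (Oryza sativa) were sprayed with the compound preparation in water containing 1000 ppm emulsifier, then infested with brown planthoppers. Percent mortality scored after 4 days (100% = all killed, 0% = none).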

Phaedon cochleariae = Phaedon cochleariae - spray test; details: in Brassica rapa, foliar, 168 h, read-out: mortality in %
Method in brief: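 Chinese cabbage leaf disks sprayed with compound diluted in water containing 1000 ppm emulsifier, then infested with mustard beetle larvae once dry. Mortality in % scored after 7 days (100% = all larvae killed, 0% = none).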

Myzus persicae [5] = experiment: Myzus persicae - oral test; details: 120 h, read-out: mortality in %
Method in brief: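 Mixed-population green peach aphids fed through parafilm on compound diluted in water plus IPL41 insect medium (33%+15% sugar). Mortality (%) scored after 5 days, 100% meaning all aphids killed.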

Nilaparvata lugens [6] = experiment: Nilaparvata lugens - spray test 2; details: 96 h, rice plants, larvae, after 4 days
Protocol: Nilaparvata lugens —Spray Test 2
as §2, with “solvents” for “solvent,”, “and” for “and the concentrate”, “concentration. Further test concentrations are prepared by dilution with emulsifier containing water.” for “concentration.”
Rice plants (Oryza sativa) are treated by being sprayed with the desired concentration of the active compound and are infested with larvae of the brown planthopper (Nilaparvata lugens).
After 4 days mortality in % is determined. 100% means all planthoppers have been killed and 0% means none of the planthoppers have been killed.

[7] = system: Aedes aegypti strain MONHEIM; experiment: Aedes test (AEDSAE surface treatment & contact assay); details: 30 minutes exposure, 24 hours after contact, read-out: efficacy (mortality in percent); for mortality at 4 mg/m2: surface concentration 4 mg/m^2, glazed tile; for mortality at 20 mg/m2: surface concentration 20 mg/m^2, glazed tile; for mortality at 100 mg/m2: surface concentration 100 mg/m^2, glazed tile
Method in brief: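 Compound in acetone plus 2000 ppm RME applied to glazed tile; after acetone evaporation, adult mosquitoes held on dried surface for 30 minutes. Percent mortality scored 24 hours after contact.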

Culex quinquefasciatus = experiment: Culex test (CULXFAS surface treatment & contact assay); details: 30 minutes exposure, 24 hours after contact, read-out: efficacy (mortality in percent); for mortality at 4 mg/m2: surface concentration 4 mg/m^2, glazed tile; for mortality at 20 mg/m2: surface concentration 20 mg/m^2, glazed tile; for mortality at 100 mg/m2: surface concentration 100 mg/m^2, glazed tile
Method in brief: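 Test compound dissolved in acetone + 2000 ppm rapeseed oil methyl ester, applied to glazed tile and acetone evaporated; adult mosquitoes exposed on dried surface for 30 minutes. Mortality (%) scored 24 hours after contact; 100% = all insects dead, 0% = none dead.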

Meloidogyne incognita = Meloidogyne incognita - test; details: 336 h, salad seedlings in sand, after 14 days, read-out: nematicidal activity (percentage of gall formation)
Protocol: Meloidogyne incognita—Test
Solvent: 125.0 parts by weight of acetone
To produce a suitable preparation of active compound, 1 part by weight of active compound is mixed with the stated amount of solvent, and the concentrate is diluted with water to the desired concentration.
Vessels are filled with sand, a solution of the active ingredient, a suspension containing eggs and larvae of the southern root-knot nematode (Meloidogyne incognita) and salad seeds. The salad seeds germinate and the seedlings grow. Galls develop in the roots.
After 14 days the nematicidal activity is determined on the basis of the percentage of gall formation. 100% means no galls were found and 0% means the number of galls found on the roots of the treated plants was equal to that in untreated control plants.

[8] = system: Anopheles funestus strain FUMOZ-R; experiment: Anopheles test (ANPHFU surface treatment & contact assay); details: 30 minutes exposure, 24 hours after contact, read-out: efficacy (mortality in percent); for mortality at 4 mg/m2: surface concentration 4 mg/m^2, glazed tile; for mortality at 20 mg/m2: surface concentration 20 mg/m^2, glazed tile; for mortality at 100 mg/m2: surface concentration 100 mg/m^2, glazed tile
Source text: Anopheles Test (ANPHFU Surface Treatment & Contact Assay)
Solvent: Acetone+2000 ppm rapeseed oil methyl ester (RME)
In order to produce a sufficient, active ingredient containing solution it is necessary to solve the test-compound in an acetone/RME solvent mixture. This solution is pipetted onto a glazed tile and after evaporation of the acetone, adult mosquitoes of the species Anopheles funestus strain FUMOZ-R (Hunt et al., Med Vet Entomol. 2005 Sep. 19(3):271-5) are placed onto the dried surface. The exposure time is 30 minutes.
Mortality in percent (%) is determined 24 hours after contact to the treated surface. 100% mortality means that all test-insects are dead, whereas 0% means that not a single insect died.

Tetranychus urticae = Tetranychus urticae - spray test OP-resistant; details: foliar, 144 h, French bean leaf disks, all instars, after 6 days
Protocol: Tetranychus urticae—Spray Test OP-Resistant
as §1
French bean (Phaseolus vulgaris) leaf disks infected with all instars of the two spotted spidermite (Tetranychus urticae), are sprayed with a preparation of the active ingredient of the desired concentration.
After 6 days mortality in % is determined. 100% means all spider mites have been killed and 0% means none of the spider mites have been killed.

[9] = system: Musca domestica strain WHO-N; experiment: Musca domestica test (MUSCDO surface treatment & contact assay); details: 30 minutes exposure, 24 hours after contact, read-out: efficacy (mortality in percent)
Method in brief: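 Compound in acetone with 2000 ppm rapeseed oil methyl ester applied to glazed tile; after acetone evaporation, adult Musca domestica WHO-N flies exposed on dried surface for 30 minutes. Mortality (%) assessed 24 hours after contact.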

Structure (SMILES)	mortality at 100 ppm (Aphis gossypii)	pest or weed control at 160 µg/disc, 160 µg/well (Diabrotica balteata)	mortality at 500 g/ha (Myzus persicae [1])	mortality at 500 g/ha (Nezara viridula [2])	mortality at 500 g/ha (Spodoptera frugiperda)	mortality at 500 g/ha (Nilaparvata lugens [4])	mortality at 500 g/ha (Phaedon cochleariae)	mortality at 20 ppm (Myzus persicae [5])	other results
CC(c1ncnn1-c1ncccn1)N(CC1CC1)C(=O)c1cc(Cl)cc(C(F)(F)F)c1 (centres unmarked) [Compound I-40, 3-chloro-N-(cyclopropylmethyl)-N-[1-(2-pyrimidin-2-yl-1,2,4-triazol-3-yl)ethyl]-5-(trifluoromethyl)benzamide]	100%	100%	90%	100%	100%	100%	100%	100%	mortality at 500 g/ha (Nezara viridula [3]): 100%; mortality at 500 g/ha (Nilaparvata lugens [6]): 100%
CC(NC(=O)c1cc(Cl)cc(C(F)(F)F)c1)c1ncnn1-c1ncccn1 (centres unmarked) [Compound I-76]	100%	100%	–	100%	100%	100%	100%	100%	mortality at 500 g/ha (Nezara viridula [3]): 100%; mortality at 500 g/ha (Nilaparvata lugens [6]): 100%
C[C@@H](c1ncnn1-c1ncccn1)N(CC1CC1)C(=O)c1cc(Cl)cc(C(F)(F)F)c1 [Compound I-93, 3-chloro-N-(cyclopropylmethyl)-N-[(1S)-1-(2-pyrimidin-2-yl-1,2,4-triazol-3-yl)ethyl]-5-(trifluoromethyl)benzamide]	100%	100%	100%	–	100%	100%	100%	100%	mortality at 4 mg/m2 [7]: 80 to 100%; mortality at 20 mg/m2 [7]: 80 to 100%; mortality at 100 mg/m2 [7]: 80 to 100%; mortality at 4 mg/m2 (Culex quinquefasciatus): 80 to 100%; mortality at 20 mg/m2 (Culex quinquefasciatus): 80 to 100%; mortality at 100 mg/m2 (Culex quinquefasciatus): 80 to 100%; mortality at 500 g/ha (Nezara viridula [3]): 100%; pest or weed control at 20 ppm (Meloidogyne incognita): 100%; mortality at 4 mg/m2 [8]: 80 to 100%; mortality at 20 mg/m2 [8]: 80 to 100%; mortality at 100 mg/m2 [8]: 80 to 100%; mortality at 500 g/ha (Nilaparvata lugens [6]): 100%
CC(c1ncnn1-c1ncccn1)N(CC#N)C(=O)c1cc(Cl)cc(C(F)(F)F)c1 (centres unmarked) [Compound I-96]	–	–	90%	100%	100%	100%	–	–	mortality at 500 g/ha (Tetranychus urticae): 90%
C[C@H](NC(=O)c1cc(Cl)cc(C(F)(F)F)c1)c1ncnn1-c1ncccn1 [Compound I-113, 3-chloro-N-[(1S)-1-(2-pyrimidin-2-yl-1,2,4-triazol-3-yl)ethyl]-5-(trifluoromethyl)benzamide]	100%	100%	–	100%	100%	100%	100%	100%	mortality at 4 mg/m2 [7]: 80 to 100%; mortality at 20 mg/m2 [7]: 80 to 100%; mortality at 100 mg/m2 [7]: 80 to 100%; mortality at 4 mg/m2 ([9]; surface concentration 4 mg/m^2, glazed tile): 80 to 100%; mortality at 20 mg/m2 ([9]; surface concentration 20 mg/m^2, glazed tile): 80 to 100%; mortality at 4 mg/m2 (Culex quinquefasciatus): 80 to 100%; mortality at 20 mg/m2 (Culex quinquefasciatus): 80 to 100%; mortality at 100 mg/m2 (Culex quinquefasciatus): 80 to 100%; mortality at 4 mg/m2 [8]: 80 to 100%; mortality at 20 mg/m2 [8]: 80 to 100%; mortality at 100 mg/m2 [8]: 80 to 100%
CC(c1ncnn1-c1ncccn1)N(CC(F)F)C(=O)c1cccc(C(F)(F)F)c1 (centres unmarked) [Compound I-123]	–	–	90%	100%	100%	100%	–	–	mortality at 500 g/ha (Tetranychus urticae): 100%
CC(NC(=O)c1cc(Cl)cc(Cl)c1)c1ncnn1-c1ncccn1 (centres unmarked) [Compound I-124]	–	–	90%	100%	100%	90%	–	–	–
CC(NC(=O)c1cc(Cl)cc(Br)c1)c1ncnn1-c1ncccn1 (centres unmarked) [Compound I-125, 3-bromo-5-chloro-N-[1-(2-pyrimidin-2-yl-1,2,4-triazol-3-yl)ethyl]benzamide]	–	100%	90%	100%	100%	–	–	–	–
CC(NC(=O)c1cc(Cl)cc(I)c1)c1ncnn1-c1ncccn1 (centres unmarked) [Compound I-126, 3-chloro-5-iodo-N-[1-(2-pyrimidin-2-yl-1,2,4-triazol-3-yl)ethyl]benzamide]	–	100%	90%	100%	100%	–	–	–	–
C[C@@H](c1ncnn1-c1ncccn1)N(CC(F)F)C(=O)c1cc(Cl)cc(C(F)(F)F)c1 [Compound I-127, 3-chloro-N-(2,2-difluoroethyl)-N-[(1S)-1-(2-pyrimidin-2-yl-1,2,4-triazol-3-yl)ethyl]-5-(trifluoromethyl)benzamide]	–	100%	100%	100%	100%	–	–	–	–
C[C@H](NC(=O)c1cncc(Br)c1)c1ncnn1-c1ncccn1 [Compound I-134]	–	100%	90%	100%	–	100%	–	–	–
